Reference: patent US11440913B2, “Aminoimidazopyridazines as kinase inhibitors” (BRISTOL-MYERS SQUIBB COMPANY, priority 2017, dated 2022)
Counter-ions that a name gives are not always drawn.

Legend:
[1] = molecular target: His-GST-TVMV-hRIPK1(1-324) (Homo sapiens (Human), UniProt Q13546); assay: RIPK1 HTRF Binding Assay; conditions: HTRF binding, 1 h at rt; read-out: RIPK1 (IC50)
In short: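 HTRF probe-displacement binding: 1 nM His-GST-TVMV-hRIPK1(1-324) (baculovirus construct), 90.6 nM probe, 0.2 nM anti-GST-Tb in 20 mM HEPES, 10 mM MgCl2, 0.015% Brij-35, 4 mM DTT, 0.05 mg/mL BSA. Incubated 1 h at rt; FRET 520/495 nm ratio, inhibition relative to DMSO-only wells.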

[2] = system: MLKL phosphorylation in HT29-L23 human colorectal adenocarcinoma cells; assay: MLKL Phosphorylation High-Content Assay; assay type: cell-based; conditions: Homo sapiens, 6 h, necroptosis induced with TNFα, SMAC mimetic and Z-VAD, read-out: pMLKL (IC50)
In short: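 HT29-L23 cells pretreated 30 min at 37 °C with compound (6.25 to 0.106 μM final), then necroptosis induced with TNFα 35 ng/mL, SMAC mimetic 700 nM and Z-VAD 140 nM for 6 h. Fixed cells immunostained for MLKL pS358 and imaged; IC50 and Ymax from 4-parameter logistic fit.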

His-GST-TVMV-hRIPK1(1-324), sequence (Q13546 1-324): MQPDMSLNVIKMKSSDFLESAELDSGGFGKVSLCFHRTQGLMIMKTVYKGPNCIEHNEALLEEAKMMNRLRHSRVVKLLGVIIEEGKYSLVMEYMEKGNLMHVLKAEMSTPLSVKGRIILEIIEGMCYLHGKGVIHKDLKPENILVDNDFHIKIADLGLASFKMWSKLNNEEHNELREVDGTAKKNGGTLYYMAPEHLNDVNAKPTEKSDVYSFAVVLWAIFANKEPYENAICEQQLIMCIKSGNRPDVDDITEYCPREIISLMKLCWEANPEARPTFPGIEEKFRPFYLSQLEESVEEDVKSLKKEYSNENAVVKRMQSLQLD

| SMILES | IC50 [1] [nM] | IC50 [2] [nM] |
| --- | --- | --- |
| COc1ncc(-c2ccc3nc(NC(C)=O)cn3n2)cc1C(=O)NCc1cc(F)ccc1OC1CCCC1 [Example 166, N-{[2-(cyclopentyloxy)-5-fluorophenyl]methyl}-5-{2-acetamidoimidazo[1,2-b]pyridazin-6-yl}-2-methoxypyridine-3-carboxamide] | 4 | 1 |
| [2H]C([2H])([2H])Oc1nc(C)c(-c2ccc3nc(NC(C)=O)cn3n2)cc1C(=O)NCc1cc(F)cc(F)c1OC1CC(C)OC(C)C1 (stereo not shown) [Example 167, N-({2-[(2,6-dimethyloxan-4-yl)oxy]-3,5-difluorophenyl}methyl)-5-{2-acetamidoimidazo[1,2-b]pyridazin-6-yl}-2-(deutero)methoxy-6-methylpyridine-3-carboxamide] | 18 | 13 |
| [2H]C([2H])([2H])Oc1nc(C)c(-c2ccc3nc(NC(C)=O)cn3n2)cc1C(=O)NCc1cccc(F)c1OC1C[C@@H](C)O[C@@H](C)C1 (stereo partly drawn) [Example 168, N-[(2-{[(2R,6S)-2,6-dimethyloxan-4-yl]oxy}-3-fluorophenyl)methyl]-5-{2-acetamidoimidazo[1,2-b]pyridazin-6-yl}-2-(deutero)methoxy-6-methylpyridine-3-carboxamide] | 21 | 67 |
| [2H]C([2H])([2H])Oc1nc(C)c(-c2ccc3nc(NC(C)=O)cn3n2)cc1C(=O)NCc1cc(F)cc(F)c1O[C@@H]1CCOC1 [Example 169, N-({3,5-difluoro-2-[(3R)-oxolan-3-yloxy]phenyl}methyl)-5-{2-acetamidoimidazo[1,2-b]pyridazin-6-yl}-2-(deutero)methoxy-6-methylpyridine-3-carboxamide] | 3 | 10 |
| [2H]C([2H])([2H])Oc1nc(C)c(-c2ccc3nc(NC(C)=O)cn3n2)cc1C(=O)NCc1cc(F)cc(F)c1O[C@H]1CCOC1 [Example 171, N-({3,5-difluoro-2-[(3S)-oxolan-3-yloxy]phenyl}methyl)-5-{2-acetamidoimidazo[1,2-b]pyridazin-6-yl}-2-(deutero)methoxy-6-methylpyridine-3-carboxamide] | 3 | 3 |
| [2H]C([2H])([2H])Oc1nc(C)c(-c2ccc3nc(NC(C)=O)cn3n2)cc1C(=O)NCc1cc(F)cc(F)c1OC1CCOC(C)C1 (stereo not shown) [Example 172, N-({3,5-difluoro-2-[(2-methyloxan-4-yl)oxy]phenyl}methyl)-5-{2-acetamidoimidazo[1,2-b]pyridazin-6-yl}-2-(deutero)methoxy-6-methylpyridine-3-carboxamide] | 15 | 16 |
| [2H]C([2H])([2H])Oc1nc(C)c(-c2ccc3nc(NC(C)=O)cn3n2)cc1C(=O)NCc1c(F)cccc1OCC(F)(F)F [Example 173, 5-{2-acetemidoimidazo[1,2-b]pyridazin-6-yl}-N-{[2-fluoro-6-(2,2,2-trifluoroethoxy)phenyl]methyl}-2-(deutero)methoxy-6-methylpyridine-3-carboxamide] | 3 | 2 |
| [2H]C([2H])([2H])Oc1nc(C)c(-c2ccc3nc(NC(C)=O)cn3n2)cc1C(=O)NCc1cc(F)cc(F)c1OC([2H])([2H])C1CC1 [Example 174, N-({2-[cyclopropyl(deutero)methoxy]-3,5-difluorophenyl}methyl)-5-{2-acetamidoimidazo[1,2-b]pyridazin-6-yl}-2-(deutero)methoxy-6-methylpyridine-3-carboxamide] | 3 | 1 |
| [2H]C([2H])([2H])Oc1nc(C)c(-c2ccc3nc(NC(C)=O)cn3n2)cc1C(=O)NC([2H])([2H])c1cc(OC(F)(F)F)ccc1F [Example 175, 5-{2-acetamidoimidazo[1,2-b]pyridazin-6-yl}-N-{[2-fluoro-5-(trifluoromethoxy)phenyl](deutero)methyl}-2-(deutero)methoxy-6-methylpyridine-3-carboxamide] | 4 | 16 |
| [2H]C([2H])([2H])Oc1nc(C)c(-c2ccc3nc(NC(C)=O)cn3n2)cc1C(=O)NCc1ccc(F)c(F)c1OCC1CC1 [Example 176, N-{[2-(cyclopropylmethoxy)-3,4-difluorophenyl]methyl}-5-{2-acetamidoimidazo[1,2-b]pyridazin-6-yl}-2-(deutero)methoxy-6-methylpyridine-3-carboxamide] | 10 | 12 |
| [2H]C([2H])([2H])Oc1nc(C)c(-c2ccc3nc(NC(C)=O)cn3n2)cc1C(=O)NCc1cc(F)cc(F)c1OCC1CC1 [Example 177, N-{[2-(cyclopropylmethoxy)-3,5-difluorophenyl]methyl}-5-{2-acetamidoimidazo[1,2-b]pyridazin-6-yl}-2-(deutero)methoxy-6-methylpyridine-3-carboxamide] | 2 | 3 |
| [2H]C([2H])([2H])Oc1nc(C)c(-c2ccc3nc(NC(C)=O)cn3n2)cc1C(=O)NCc1ccccc1OC(F)(F)F [Example 178, 5-{2-acetamidoimidazo[1,2-b]pyridazin-6-yl}-2-(deutero) methoxy-6-methyl-N-{[2-(trifluoromethoxy)phenyl]methyl} pyridine-3-carboxamide] | 4 | 20 |
| [2H]C([2H])([2H])Oc1nc(C)c(-c2ccc3nc(NC(C)=O)cn3n2)cc1C(=O)NCc1cc(OC(F)(F)F)ccc1F [Example 179, 5-{2-acetamidoimidazo[1,2-b]pyridazin-6-yl}-N-{[2-fluoro-5-(trifluoromethoxy)phenyl]methyl}-2-(deutero)methoxy-6-methylpyridine-3-carboxamide] | 3 | 13 |
| [2H]C([2H])([2H])Oc1nc(C)c(-c2ccc3nc(NC(C)=O)cn3n2)cc1C(=O)NCc1cc(OCC2CC2)ccc1F [Example 180, N-{[5-(cyclopropyhnethoxy)-2-fluorophenyl]methyl}-5-{2-acetamidoimidazo[1,2-b]pyridazin-6-yl}-2-(deutero)methoxy-6-methylpyridine-3-carboxamide] | 4 | 18 |
| Cc1ncc(-c2ccc3nc(NC(=O)CO)cn3n2)cc1C(=O)N[C@@H](C)c1cc(OC(F)(F)F)ccc1F [Example 181, N-[(1S)-1-[2-fluoro-5-(trifluoromethoxy)phenyl]ethyl]-5-[2-(2-hydroxyacetamido)imidazo[1,2-b]pyridazin-6-yl]-2-methylpyridine-3-carboxamide] | 103 | 171 |
| Cc1ncc(-c2ccc3nc(NC(=O)CO)cn3n2)cc1C(=O)N[C@H](C)c1cc(C(F)(F)F)ccc1F [Example 182, N-[(1R)-1-[2-fluoro-5-(trifluoromethyl)phenyl]ethyl]-5-[2-(2-hydroxyacetamido)imidazo [1,2-b]pyridazin-6-yl]-2-methylpyridine-3-carboxamide, TFA] | 272 | 455 |
| Cc1ncc(-c2ccc3nc(NC(=O)CO)cn3n2)cc1C(=O)NCc1cc(C(F)(F)F)ccc1F [Example 183, N-{[2-fluoro-5-(trifluoromethyl)phenyl]methyl}-5-[2-(2-hydroxyacetamido)imidazo [1,2-b]pyridazin-6-yl]-2-methylpyridine-3-carboxamide] | 166 | 392 |
| [2H]C([2H])(NC(=O)c1cc(-c2ccc3nc(NC(=O)CO)cn3n2)cnc1C)c1cc(F)cc(F)c1OC1CCOCC1 [Example 184, N-{[3,5-difluoro-2-(oxan-4-yloxy)phenyl](deutero)methyl}-5-[2-(2-hydroxyacetamido)imidazo [1,2-b]pyridazin-6-yl]-2-methylpyridine-3-carboxamide] | 9 | 177 |
| Cc1ncc(-c2ccc3nc(NC(=O)CO)cn3n2)cc1C(=O)N[C@H](C)c1cc(OC(F)(F)F)ccc1F [Example 185, N-[(1R)-1-[2-fluoro-5-(trifluoromethoxy)phenyl]ethyl]-5-[2-(2-hydroxyacetamido)imidazo [1,2-b]pyridazin-6-yl]-2-methylpyridine-3-carboxamide] | 30 | 81 |
| CC(=O)Nc1cn2nc(-c3cnc(C)c(C(=O)NCc4cc(F)cc(F)c4OC4CCCOC4)c3)ccc2n1 (stereo not shown) [Example 186, N-{[3,5-difluoro-2-(oxan-3-yloxy)phenyl]methyl}-5-{2-acetamidoimidazo[1,2-b]pyridazin-6-yl}-2-methylpyridine-3-carboxamide] | 15 | 96 |
| CC(=O)Nc1cn2nc(-c3cnc(C)c(C(=O)NCc4cc(F)cc(F)c4O[C@H]4CCOC4)c3)ccc2n1 [Example 187, N-({3,5-difluoro-2-[(3S)-oxolan-3-yloxy]phenyl}methyl)-5-{2-acetamidoimidazo [1,2-b]pyridazin-6-yl}-2-methylpyridine-3-carboxamide] | 18 | 148 |
| CC(=O)Nc1cn2nc(-c3cnc(C)c(C(=O)NCc4cc(F)cc(F)c4OC4CCOC(C)C4)c3)ccc2n1 (stereo not shown) [Example 188, N-({3,5-difluoro-2-[(2-methyloxan-4-yl)oxy]phenyl}methyl)-5-{2-acetamidoimidazo [1,2-b]pyridazin-6-yl}-2-methylpyridine-3-carboxamide] | 22 | 217 |
| CC(=O)Nc1cn2nc(-c3cnc(C)c(C(=O)NCc4cc(F)cc(F)c4OC4CC(C)OC(C)C4)c3)ccc2n1 (stereo not shown) [Example 189, N-({2-[(2,6-dimethyloxan-4-yl)oxy]-3,5-difluorophenyl}methyl)-5-{2-acetamidoimidazo [1,2-b]pyridazin-6-yl}-2-methylpyridine-3-carboxamide] | 91 | 208 |
